From patent US20240294572A1, “Antimicrobial Peptides” (priority 2021, published 2024)
Values after ≈ are worked out from the molar mass of the structure shown. Where two headings read alike, the source gives them in different places. Non-standard residues stand in square brackets, D forms with d. Residues, ends and D or L forms follow the SMILES beside them. *: point of attachment. Decanoyl = CCCCCCCCCC(=O)*

Columns and labels:
[1] = tested on: Klebsiella pneumonia ATCC 13883; assay: Antibacterial broth microdilution MIC; type: cell-based
Procedure, shortened: (§1)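 Broth microdilution per CLSI M07-A10 with minor changes: 2-fold peptide dilutions plus log-phase bacteria (OD600 ~0.5) diluted to 0.001 OD, in TSB. Incubated overnight at 37 °C; growth read at 630 nm.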

[2] = tested on: human red blood cells (hRBCs); type: cell-based
Procedure, shortened: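 Saline-washed human erythrocytes at 2% (v/v) incubated with peptides at various concentrations, 37° C, 1 hour. Haemoglobin release read at 545 nm in supernatant after centrifugation; 1% Triton X-100 = 100% lysis, PBS = 0%. HC50 is the peptide concentration giving 50% lysis; CSI = HC50/MIC against MRSA.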

[3] = tested on: trypsin, chymotrypsin, pancreas elastase, S. aureus V8 protease, and fungal proteinase K
Experimental: The peptide was incubated with various proteases in 10 mM PBS buffer (pH 7.4) at 37° C. for 24 hours. Aliquots (20 μL) of the reaction solutions were taken at 3 and 24 hours. The reaction was then stopped by mixing with 20 μL of 2×SDS loading buffer and boiling in a water bath for ˜10 minutes. For the SDS-PAGE analysis, 10 μL of each sample was loaded to the well of a 5% stacking/18% resolving tricine gel and run at a constant current of 35 mA. The gels were stained using Coomassie Brilliant Blue.

S. aureus USA400 = type: cell-based
Procedure, shortened: as §1

S. aureus Mu50 = type: cell-based
Procedure, shortened: as §1

S. aureus USA200 = type: cell-based
Procedure, shortened: as §1

S. aureus Newman = type: cell-based
Procedure, shortened: as §1

S. aureus USA300 LAC [4] = type: cell-based
Procedure, shortened: (§2)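 Broth microdilution after CLSI M07-A10, modified: 2-fold peptide dilutions plus log-phase bacteria diluted to 0.001 OD, incubated overnight at 37° C, absorbance read at 630 nm. Medium effects probed with varied pH, NaCl or human serum in TSB (control pH 7.4), with 10%, 50%, 100% TSB, and with MHB.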

E. coli ATCC 25922 = type: cell-based
Procedure, shortened: as §2

S. aureus USA300 LAC [5] = assay: Bacterial membrane permeation (propidium iodide); type: cell-based; conditions: 12.5 μM
Experimental: The experiment was performed as described with minor modifications (Mishra, et al. (2019) Proc. Natl. Acad. Sci., 116:13517-13522). Serially diluted 10×peptides (10 μL each well) were created in 96-well microtiter plates. Propidium iodide (2 μL) at a fixed concentration of 20 μM was added to each well followed by 88 μL of the exponential phase S. aureus USA300 culture (a final OD600˜0.1 in TSB media or PBS). Both daptomycin (98%, TSZChem, MA) and rifamycin (98%, Alfa Aesar, MA) were used as controls. The plate was incubated at 37° C. with continuous shaking at 100 rpm in a FLUOstar® Omega (BMG LABTECH, NC) microplate reader. The samples fluorescence was read at every 5 minutes for 24 cycles with excitation and emission wavelengths of 584 and 620 nm, respectively. Plots were generated using average values from the experiments using GraphPad Prism 7.

S. aureus USA300 LAC [6] = assay: Catheter-associated murine biofilm model; type: in vivo, mice; conditions: single dose 15 mg/kg (250 μg) into and around catheter, day 3
Experimental: Peptide potency was evaluated in the catheter model as described (Wang, et al. (2014) ACS Chem. Biol., 9:1997-2002; Heim, et al. (2014) Methods Mol. Biol., 1106:183-191). On the day of infection, mice were anesthetized using ketamine/xylazine (100/10 mg/kg). A small incision was made on the left flank region of the mouse, and using small blunt spatula, a pouch was made for catheter insertion. A sterile catheter with a length of 1 cm was inserted into the pouch aseptically. The wound was sealed using wound closure VetBond™ glue. Bacterial inoculum (20 μL with 10^3 CFU) was injected into the lumen of the catheter. Two hours post infection, the peptide was injected at 15 mg/kg (50 μL at each of the five sites in and around the catheter). Mice were allowed full recovery from anesthesia in an oxygen-enriched chamber. Three days after infection, untreated and treated animal groups were CO2 euthanized and the tissue around the catheter was harvested along with the catheter. A bacterial uninfected catheter group was included as a negative control. All the catheters were sonicated at 37 kHz for 15 minutes to release the bacteria in biofilms, and the tissues were homogenized. […] Degree of significance was represented as *p<0.05**p<0.01, ***p<0.001, and NS means no significance (determined by nonparametric, unpaired, Mann-Whitney test).

CCCCCCCCCC(=O)N[C@@H](CCCCN)C(=O)N[C@@H](CCCNC(=N)N)C(=O)N[C@H](C(=O)N[C@@H](Cc1c[nH]c2ccccc12)C(=O)N[C@@H](CCC(N)=O)C(=O)N[C@@H](CCCNC(=N)N)C(=O)N[C@H](C(=O)N[C@@H](CCCCN)C(N)=O)[C@@H](C)CC)[C@@H](C)CC [Peptide C10-KR8] (Decanoyl-KRIWQRIK-NH2)
MIC (μM) KP [1]: 50 µM (≈ 64 µg/mL) | HC50 [2]: 300 µM | time to degradation by proteases ([3]; nearly all the cases, except for S. aureus V8 protease, 37° C., PBS pH 7.4): ≤ 3 h | Minimal inhibitory concentration, USA400 (S. aureus USA400): 3.1 µM (≈ 3.97 µg/mL) | Minimal inhibitory concentration, Mu50 (S. aureus Mu50): 3.1 µM (≈ 3.97 µg/mL) | Minimal inhibitory concentration, USA200 (S. aureus USA200): 3.1 µM (≈ 3.97 µg/mL) | Minimal inhibitory concentration, Newman (S. aureus Newman): 3.1 µM (≈ 3.97 µg/mL) | MIC in the presence of 5 or 10% human serum (S. aureus USA300 LAC [4]; 5 or 10% human serum): > 25 µM | MIC (μM) SA (S. aureus USA300 LAC [4]; USA300): 1.5 to 3.1 µM | Minimal inhibitory concentration (MIC), pH = 6.8 (S. aureus USA300 LAC [4]; USA300, pH 6.8): 3.1-6.2 μM | MIC (μM) EC (E. coli ATCC 25922): 12.5 µM (≈ 16 µg/mL)

CCCCCCCCCC(=O)N[C@H](CCCCN)C(=O)N[C@H](CCCNC(=N)N)C(=O)N[C@@H](C(=O)N[C@H](Cc1c[nH]c2ccccc12)C(=O)N[C@H](CCC(N)=O)C(=O)N[C@H](CCCNC(=N)N)C(=O)N[C@@H](C(=O)N[C@H](CCCCN)C(N)=O)[C@H](C)CC)[C@H](C)CC [Peptide C10-KR8d] (Decanoyl-[dK][dR][dI][dW][dQ][dR][dI][dK]-NH2)
MIC (μM) KP [1]: 25 µM (≈ 32 µg/mL) | membrane permeation (propidium iodide fluorescence) (S. aureus USA300 LAC [5]): able to permeate the membranes of S. aureus USA300 LAC | bacterial burden (CFU) on catheter and surrounding tissue (S. aureus USA300 LAC [6]): clear decrease in bacterial burden | HC50 ([2]; red cells of human, 1 h): 300 µM | stability to five proteases ([3]; trypsin, chymotrypsin, pancreas elastase, S. aureus V8 protease, fungal proteinase K, 3 and 24 hours): resistant to the five proteases | Minimal inhibitory concentration, USA400 (S. aureus USA400): 1.6 µM (≈ 2.05 µg/mL) | Minimal inhibitory concentration, Mu50 (S. aureus Mu50): 3.1 µM (≈ 3.97 µg/mL) | Minimal inhibitory concentration, USA200 (S. aureus USA200): 1.6 µM (≈ 2.05 µg/mL) | Minimal inhibitory concentration, Newman (S. aureus Newman): 1.6 µM (≈ 2.05 µg/mL) | reduction of anti-MRSA activity (S. aureus USA300 LAC [4]; 10% serum, pH 7.4): 2 fold | MIC (μM) SA (S. aureus USA300 LAC [4]; USA300): 1.5 to 3.1 µM | MIC values (Table 4, text summary) (S. aureus USA300 LAC [4]; USA300): 3.1 to 6.2 µM | MIC (μM) EC (E. coli ATCC 25922): 12.5 µM (≈ 16 µg/mL) | Minimal inhibitory concentration against E. coli, 100% TSB (E. coli ATCC 25922): 6.2 µM (≈ 7.94 µg/mL)
